From patent publication US4829086A, “Soft β-adrenergic blocking agents” (priority 1985, dated 1989)
Where a name gives a salt, the structure may show the parent alone. Read-outs that look alike come from different tables or passages of the source.

What was measured:
[1] = tested on: heart rate response to isoproterenol (β-adrenergic); experiment: Heart rate response to isoproterenol in rats (initial drug screening); assay type: in vivo, male Spraque-Dawley rats; details: 6 mg/kg i.p.; for resting heart rate prior to administration of isoproterenol: mean ± SEM
From the text: (§1) Initial Drug Screening Protocol. Thirty-two male Spraque-Dawley rats (Blue Spruce Farms) initially weighing 300-450 gm were divided into seven different groups, each for a different drug to be tested: 12(n=4), 14(n=4), 17(n=5), 13(n=4) and 18(n=3), corresponding to the designated compounds 12, 14, 17, 13 and 18 (number of animals), respectively. The other two groups were controls (n=8, isoproterenol alone pretreated with carrier) and those treated with a known β-blocker, dl-propranolol (n=3). Ech animal was anesthetized with sodium pentobarbital (45 mg/kg) and the carotid artery was cannulated with PE-50 tubing. The cannula was subcutaneously threaded around the neck and exteriorized dorsally between the shoulder blades. Th cannula was filled with a heparin solution (300 μg/mL) and sealed with a solid 22 gauge stylet. The animals were housed in individual stainless steel cages, and two days were allowed for recovery from the surgery. Food and water were provided ad libitum. On the day of the experiment, the blood pressure and heart rate of each rat were monitored with a pressure transducer (Narco-Bio model P-1000) and the data recorded on a four-channel physiograph (Narco-Bio systems Marck IV). One hour was allowed as an equilibration period before any drugs were administered. All beta blockers were administered intraperitoneally at a dose of 6 mg/kg. Compounds 12 and 14 and dl-proranolol were dissolved in normal saline while compounds 13, 17 and 18 were dissolved in an ethanol: water solution (3:1). Depending on the trial, controls were administered the appropriate carrier. One hour after administration of the blocker, isoproterenol (Isuprel®, Wintrop Laboratories) was administered subcutaneously at a dose of 25 μg/kg. Blood pressures and heart rate also were recorded 3, 5, 10, 15, 20, 30, 45 and 60 minutes after isoproterenol administration. Both control and experimental animals were unrestrained and free moving in their home cage throughout the experiment. […] However, significant differences in the mean heart rate response amoung the 7 groups were observed: *p<0.005;**p<0.025. Comparisons between groups were made by the Newman-Keuls procedure with significance set at the 95% confidence interval. […] All data are shown as mean±standard error of the mean.

[2] = Hydrolytic rate in 0.01 N aqueous sodium hydroxide, pH 12.0; assay type: physicochemical; details: for Observed pseudo first order hydrolytic rate constant k: 0.01 N NaOH, ± SEM; for Observed pseudo first order hydrolytic rate constant k / half-life: pH 12.0, ionic strength 0.10 M (NaCl), 27.3 ± 0.2° C.; for half-life: 0.01 n naoh, pH 12, 0.01 N NaOH, read-out: Half-life t1/2
Description: (§2) Analytical Methods. A high pressure liquid chromatography (HPLC) method was developed for the determination of the rate constants. The chromatographic analysis was performed in a system consisting of Waters Associates Model 600-A Solvent Delivery System, Model U-6K Injector and Model 440 Dual Channel Absorbance Detector operated at 254 and 280 nm. A 30 cm×3.9 mm (internal diameter) reverse phase μBondpack C18 column (Waters Associates), operated at ambient temperature, was used for all separations. When plasma samples were analyzed, the column was protected with a 2.3 cm×3.9 mm (internal diameter) Guard Column (Waters) packed with μBondpack C18/Corasil packing material. The mobile phase used for the separation of 17 and its degradation product, 5, consisted of water, 1-hexane sulfonic acid in acetic acid (B-6 reagent, Waters), 0.1M triethanolamine and methanol (100:1:100:799). […] For the separation of compounds 10-16 and 18 and their degradation product 5, a mobile phase consisting of water, 1-hexane sulfonic acid in acetic acid (B-6 reagent, Waters), 0.1M triethanolamine and methanol (390:1:10:599) was used.
(§3) Determination of the Hydrolytic Rate Constants in Aqueous Solutions. A 0.01M phosphate buffer and 0.01N sodium hydroxide solution were prepared from freshly distilled deionized water. This ionic strength was maintained at 0.1M with sodium chloride. The pH of the phosphate buffer was determined at 37.0° C. with a pH meter standardized at this temperature. For determination of the hydrolytic rate constants, a fresh concentrated solution of the ester in methanol was added to the hydrolytic medium previously equilibrated to the desired temperature and mixed thoroughly to result in an initial concentration of about 5×10^-4 mol. liter^-1. All reactions were run under pseudo first order conditions. Samples of 25 μL were injected into the column at various time intervals and the pseudo first order rate constants were determined from disappearance of the compound by linear regression of natural logarithm of the peak height versus time plots. The half-life and standard error of the rate constant were calculated for each run.

[3] = Enzymatic hydrolytic cleavage in human plasma; assay type: in vitro ADME; details: for Observed first order hydrolytic rate constant k: ± SEM; for half-life at 1000 µM: human, plasma; for hydrolysis in human plasma: three hours where stated
Description: as §2, §3
Determination of the Enzymatic Hydrolytic Cleavage Rates in Human Plasma. The freshly collected plasma used was obtained from the Civitan Regional Blood Center, Inc. (Gainesville, Fla.) and contained about 80% plasma diluted with anticoagulant citrate phosphate dextrose solution, U.S.P. The plasma was stored in a refrigerator and used within one week from the date it was collected.
A portion of 50 μL of a freshly prepared solution of the compound in methanol was added to 10 mL plasma, previously equilibrated at 37.0° C. in a water bath, and mixed thoroughly to result in an initial concentration of 1×10^-3 mol. liter^-1. One mL samples of plasma were withdrawn from the test medium, mixed immediately with 4.0 mL ice cold 95% v/v ethanol, centrifuged and the supernatant analyzed by HPLC. The first order hydrolytic rate constant was determined as before in the aqueous solutions and the results are listed in TABLE II below.

[4] = tested on: heart rate response to isoproterenol (β-adrenergic); experiment: Cardiovascular experiments in dogs: blockade of isoproterenol heart rate response; assay type: in vivo, mongrel dogs; details: for Duration, Mean (time at which response to isoproterenol had returned to control levels) / Duration, Range (time at which response to isoproterenol had returned to control levels) / Maximal blockade, Mean (time necessary to reach maximal blockade) / Maximal blockade, Range (time necessary to reach maximal blockade): 1 mg/kg i.v.; for Maximal blockade, Mean (time necessary to reach maximal blockade) / Maximal blockade, Range (time necessary to reach maximal blockade): 15 minute measurements
Description: Method. Healthy, mongrel dogs were anesthetized with a combination of morphine sulfate (2.0 mg/kg, subcutaneously) followed in 20 minutes with pentabarbital sodium (15 mg/kg, intravenously). Supplemental pentabarbital was given as necessary. A femoral vein was catheterized with polyethylene tubing to the level of the heart for injecting drug solutions. A polyethylene tube filled with heparinized saline was inserted through the femoral artery and advanced to the thoracic aorta for the measurement of arterial pressure. The left carotid artery was cannulated with a Millar® transducer-tip catheter for measurement of left ventricular pressure (LVP). The rising slope of the LVP signal was differentiated to give dP/dt, an estimate of myocardial contractility. Heart rate was determined via a Grass cardiotachometer triggered by the R wave of the lead II EKG. All variables were recorded on a Grass polygraph.
Dose-response curves were constructed for each experimental variable to graded i.v. doses of the β-adrenergic agonist, isoproterenol. A period of 3-5 minutes was allowed after each injection for variables to return to base-line. Following this, one of the four experimental β-adrenergic blocking agents was given i.v. over a one-minute period. Abbreviated dose-response curves (2-3 dose points) were again constructed to isoproterenol at 15, 30, 45, 60, 75 and 90 minutes after the administration of the test blockers. Using a 50-beat per minute (bpm) increase in heart rate as criteria, the degree of blockade was determined by dividing the dose of isoproterenol needed to produce a 50 bpm increase at various times following administration of an antagonists by the dose needed for this effect during the control period. The doses of the experimental β-adrenergic antagonists given were determined from previous experiments to produce an approximate two- or four-fold blockade of the heart rate response to isoproterenol.

[5] = tested on: blood pressure response to isoproterenol; experiment: Blood pressure response to isoproterenol in rats; assay type: in vivo, male Spraque-Dawley rats; details: 6 mg/kg i.p.
From the text: as §1
Symbols are the same as those described for FIG. 1. […] Data are shown as mean±standard error of the mean.

[6] = 37.0 ± 0.1° C., read-out: Half-life t1/2

Row | SMILES | resting heart rate prior to administration of isoproterenol [1] | Observed pseudo first order hydrolytic rate constant k [2] | half-life [2] | Observed first order hydrolytic rate constant k ([3]; 37.0 ± 0.1° C.) | half-life at 1000 µM [3, 6] | Duration, Mean (time at which response to isoproterenol had returned to control levels) [4] | Duration, Range (time at which response to isoproterenol had returned to control levels) [4] | Maximal blockade, Mean (time necessary to reach maximal blockade) [4] | Maximal blockade, Range (time necessary to reach maximal blockade) [4] | other results
1 | CC(C)NCC(O)COc1cccc2ccccc12 (racemic) [d,l-propranolol, dl-propranolol, reference compound] | 320±23 beat/minute |  |  |  |  |  |  |  |  | 
2 | CCOC(=O)Cc1ccc(OCC(O)CNC(C)C)cc1 (centres unmarked) [Compound 10, Ethyl 4-(2-hydroxy-3-isopropylamino)-propoxyphenylacetate] |  | 0.117 ± 0.001 min⁻¹ | 5.91 min | 0.238 ± 0.010 min⁻¹ | 2.91 min | ~ 50 min | 45 to 60 min | 15 min | 15-15 min | 
3 | CC(C)NCC(O)COc1ccc(CC(=O)OC(C)C)cc1 (centres unmarked) [Compound 12, Isopropyl 4-(2-hydroxy-3-isopropylamino)propoxyphenylacetate] | 345±19 beat/minute | 2.07 ± 0.03 × 10^-2 min^-1 | 33.5 min | 0.414 ± 0.001 × 10^-2 min^-1 | 167 min |  |  |  |  | hydrolyzed up to x times more slowly than many of the other esters [3]: up to 100 times
4 | CCCCOC(=O)Cc1ccc(OCC(O)CNC(C)C)cc1 (centres unmarked) [Compound 13, n-Butyl 4-(2-hydroxy-3-isopropylamino)propoxyphenylacetate] | 340±14 beat/minute | 9.27 ± 0.07 × 10^-2 min^-1 | 7.48 min |  |  |  |  |  |  | half-life at 1000 µM ([3]; read-out: in vitro plasma half-life): ~1 min; control of heart rate 60 minutes after administration ([1]; FIG. 1): effectively control the heart rate; mean change in blood pressure vs propranolol and compound 12-treated groups ([5]; isoproterenol 25 μg/kg s.c., FIG. 3): significantly lower (p<0.15); mean change in blood pressure at 10 minutes vs compound 12-treated group ([5]; 10 minutes after isoproterenol): different from the compound 12-treated group; mean change in blood pressure at 10 minutes vs compound 18 group ([5]; 10 minutes after isoproterenol): significantly different from the group treated with compound 18; mean change in blood pressure at 15 minutes vs compound 12, 18 and control vehicle ([5]; 15 minutes after isoproterenol): significantly different from groups pretreated with compound 12, 18 and the control vehicle
5 | CC(C)NCC(O)COc1ccc(CC(=O)OC2CCCCC2)cc1 (centres unmarked) [Compound 15, Cyclohexyl 4-(2-hydroxy-3-isopropylamino)propoxyphenylacetate oxalate 3/4 hydrate] |  | 4.96 ± 0.03 × 10^-2 min^-1 | 14 min | 1.46 ± 0.15 min⁻¹ | 0.47 min | ~ 85 min | 75 to 90 min | 20 min | 15 to 30 min | half-life at 1000 µM ([3]; shortest, read-out: plasma hydrolytic half-life): < 1 min; duration of action ([4]; i.v.): longest duration of action; time after administration at which antagonism dissipated / heart rate responsiveness returned to control ([4]; i.v.): approximately 90 minutes; β1-antagonist activity / blocking of cardiac effects of isoproterenol ([4]; i.v., FIG. 4): most potent in blocking the cardiac effects of isoproterenol
6 | CC(C)NCC(O)COc1ccc(CC(=O)OC2C(C)CCCC2C)cc1 (centres unmarked) [Compound 16, 2,6-Dimethylcyclohexyl 4-(2-hydroxy-3-isopropylamino)propoxyphenylacetate oxalate hydrate] |  |  |  | 1.64 ± 0.14 × 10^-2 min^-1 | 42.2 min | ~ 65 min | 45 to 90 min | 38 min | 15 to 60 min | hydrolysis kinetics ([2]; pH 12, 1:2 mixture of two isomers): biphastic kinetics; hydrolysis in human plasma ([3]; 37.0 ± 0.1° C., oxalate hydrate): did not hydrolyze in the plasma within 3 hours; duration of action ([4]; i.v.): much more variable and generally longer
7 | CCCCOC(=O)Cc1ccc(OCC(O)CNC(C)(C)C)cc1 (centres unmarked) [Compound 18, n-Butyl 4-(2-hydroxy-3-tert-butylamino)propoxyphenylacetate oxalate hydrate] | 307±7 beat/minute | 7.19 ± 0.04 × 10^-2 min^-1 | 9.64 min | 0.351 ± 0.019 min⁻¹ | 1.98 min |  |  |  |  | hydrolysis in human plasma ([3]; 37.0 ± 0.1° C.): did not affect the hydrolysis rates
8 | CC(C)NCC(O)COc1cccc2ccccc12 (centres unmarked) [propranolol, reference compound] |  |  |  |  |  |  |  |  |  | mean heart rate response to isoproterenol, comparison between groups ([1]; 1 hour before isoproterenol 25 μg/kg s.c., Newman-Keuls, first 20 minutes (17) or first 30 minutes (propranolol)): significantly different for the first 30 minutes; mean heart rate response to isoproterenol vs groups treated with compound 12 and 18 ([1]; 10 through 45 minutes following isoproterenol): significantly different than the groups treated with compound 12 and 18
